System: PBMCs of ten HLA-A2+ healthy subjects
Assay: In vitro stimulation of peptide-specific T cells in PBMCs of healthy subjects, IFN-γ release by ELISA
Format: cell-based, human
Details: PBMCs stimulated 14 days with peptide 20 μg/mL, response to T2 cells pre-loaded with peptide 5 μg/mL
Description: Ten HLA-A2+ prostate cancer patients and ten HLA-A2+ healthy subjects were enrolled in this study after written informed consent was obtained. All protocols were approved by the Institutional Review Board (IRB) of Baylor College of Medicine before commencing studies. 20 mL of peripheral blood was obtained from each person, and peripheral blood mononuclear cells (PBMCs) were isolated by density gradient centrifugation using Lymphoprep (Nycomed Pharma AS; Oslo, Norway). The freshly isolated PBMCs were cryopreserved for later use in 1 mL freezing medium containing 90% FCS and 10% dimethyl sulfoxide (DMSO) at −140° C. The expression of HLA-A2 molecules on PBMCs obtained from cancer patients and healthy subjects was verified by flow cytometry with FITC-labeled HLA-A2 mAb BB7.2 (BD Pharmingen, San Diego, Calif., USA).
PBMCs (1×10^5 cells/well) from either healthy subjects or prostate cancer patients were incubated with standard peptide concentrations of 20 μg/mL per peptide in 96-well U-bottom microplates (BD, Franklin Lakes, N.J., USA) in 200 μL of T-cell medium (TCM), consisting of RPMI 1640 (Mediatech, Manassas, Va., USA), 10% human AB serum (Valley Biomedical, Winchester, USA), 50 μM of 2-mercaptoethanol, 100 U/mL of interleukin-2 (IL-2), and 0.1 mM MEM nonessential amino acid solution (Invitrogen, Grand Island, N.Y., USA). Half of the TCM was removed and replaced with fresh TCM containing peptides (20 μg/mL) every 5 days. After 14 days of culture, the cells were harvested and tested for their ability to produce IFN-γ in response to T2 cells (1×10^4 cells/well), which were pre-loaded with either PSGR peptide (5 μg/mL) or a control peptide (an irrelevant HL-A2 binding peptide: NLLTHVESL) as a negative control. After 18 hours of incubation, supernatants were collected, and IFN-γ release was determined by ELISA assay.
Cytokine release was measured by coating 96-well ELISA plates (Thermo Fisher Scientific; Rochester, N.Y., USA) with 1 μg/mL anti-human IFN-γ (Pierce Biotechnology; Rockford, Ill., USA) overnight at 4° C. The plate was washed six times with PBS containing 0.05% Tween-20 (wash solution) to remove unbound coating antibody, and blocked with 1% BSA/PBS at room temperature for 2 hrs. Afterwards, 50 μL supernatant was added to each well and incubated at room temperature for 1 hr, then 50 μL of 0.5 μg/mL biotinylated anti-human IFN-γ (Pierce Biotechnology; Rockford, Ill., USA) was added and plates were incubated for an additional 1 hr at room temperature. After incubation, plates were washed and incubated for 30 min with Poly-HRP-Streptavidin (Thermo Fisher Scientific; Rochester, N.Y., USA) diluted 1:5000 in PBS/1% BSA. Plates were washed and 100 μL of TMB substrate solution (Sigma-Aldrich Co.; St. Louis, Mo., USA) was added per well. The colorimetric reaction was stopped using 2N H2SO4 and plates were read at 450 nm using an ELISA plate reader.
To determine whether PSGR-reactive T cell precursors are present in healthy subjects, we obtained PBMCs from 10 HLA-A2+ healthy donors and stimulated them in vitro with each of the 21 PSGR-derived peptides containing HLA-A2-binding motif (Table 1). After 2 weeks of peptide stimulation, supernatants from peptide-stimulated T cells were analyzed by ELISA assay to detect IFN-γ release in response to T2 cells pulsed with or without corresponding peptides.

Sequence | concentrations of IFN-γ in the supernatants (healthy subject #1) [pg/mL] | concentrations of IFN-γ in the supernatants (healthy subject #2) [pg/mL] | concentrations of IFN-γ in the supernatants (healthy subject #3) [pg/mL] | concentrations of IFN-γ in the supernatants (healthy subject #4) [pg/mL] | concentrations of IFN-γ in the supernatants (healthy subject #5) [pg/mL] | concentrations of IFN-γ in the supernatants (healthy subject #6) [pg/mL]
CMLSGIDILI (PSGR17) | 0 | 0 | 0 | 0 | 0 | 0
TLPRVTKIGV (PSGR23) | 0 | 0 | 0 | 0 | 0 | 0
ALMAPLPVFI (PSGR13) | 0 | 0 | 0 | 0 | 0 | 0
LLILKTVLGL (PSGR15) | 0 | 0 | 456 | 0 | 0 | 0
HVCAVFIFYV (PSGR11) | 0 | 0 | 0 | 0 | 0 | 0
YVPFIGLSMV (PSGR24) | 0 | 0 | 0 | 0 | 0 | 0
VLNPIVYGV (PSGR1) | 195 | 0 | 0 | 0 | 0 | 281
LLQMFAIHSL (PSGR18) | 176 | 0 | 0 | 0 | 0 | 0
KLACDDIRV (PSGR2) | 0 | 0 | 455 | 0 | 0 | 0
LLAMAFDRYV (PSGR20) | 0 | 0 | 0 | 0 | 0 | 0
GLEEAQFWLA (PSGR12) | 0 | 139 | 0 | 246 | 0 | 432
FIFYVPFIGL (PSGR22) | 289 | 0 | 0 | 0 | 0 | 0
SLLISFSYLL (PSGR10) | 917 | 0 | 0 | 0 | 0 | 0
VLGNLTIIYI (PSGR21) | 0 | 291 | 0 | 0 | 300 | 377
YLIAVLGNLT (PSGR16) | 602 | 0 | 0 | 0 | 163 | 0
YLLILKTVL (PSGR5) | 0 | 0 | 0 | 0 | 0 | 0
SLHEPMYIFL (PSGR19) | 0 | 0 | 0 | 0 | 195 | 0
CLHQDVMKL [PSGR7] | 0 | 0 | 0 | 0 | 168 | 0

From patent US10722563B2, “Prostate-specific tumor antigens and uses thereof” (SHENZHEN INNOVATION IMMUNOTECHNOLOGY CO., LTD., priority 2012, dated 2020)
